Assay results as given in the CATMoS acute toxicity set (Mansouri et al. 2021).

Assay: GHS categories as the set defines them, by LD50: 1 up to 5, 2 up to 50, 3 up to 300, 4 up to 2000, 5 above 2000 mg/kg
Conditions: rat; in vivo; po
Text: […]The data set underlying the modeling effort for this project was initially compiled by NICEATM and U.S. EPA’s CCTE. Briefly, LD50 data were collected from rat acute oral systemic toxicity tests, including limit tests, ranges/confidence intervals, and discrete LD50 values. The full data set included 21,200 LD50 entries for 15,688 substances. […] Data were reviewed to ensure that LD50 values with obvious errors in the extracted data such as unit conversion errors (e.g., comma and decimal separator misplacements) were either fixed or removed. After this review, 16,209 LD50 values remained. Many of the chemicals represented had multiple LD50 entries, requiring that a single representative value per Chemical Abstracts Service Registry Number (CASRN) identifier be defined to facilitate modeling efforts. Based on ATWG feedback and to define the representative LD50 as a protective value while accounting for the distribution across multiple LD50s, the median of the lowest quartile was computed using only discrete LD50 values (omitting limit test data and range and confidence interval data). A detailed summary of the data compilation is available online on the NICEATM webpage dedicated to the collaborative modeling project (NTP 2020).
[…][…] For categorical designations, limit test and range/confidence interval LD50 data were integrated wherever possible. As such, the number of chemicals with end point values/calls varies across the modeling end points (Table 3) based on whether chemicals had representative LD50 values and/or other data. If a chemical had both, the representative value was used to determine categorical calls rather than limit test data. Some data were useable only for certain end points and categories depending on the thresholds. For example, ranges that spanned multiple hazard categories were considered only for the binary (very toxic/nontoxic) end points and omitted from rendering a determination for hazard category assignment.
[…]The final data set comprising 11,992 chemicals was split into training and evaluation sets […], respectively. This process was performed semirandomly by ordering chemicals based on the five end points (categorical and continuous LD50 values) and partitioning every fourth record into the evaluation set accordingly. This approach was taken to ensure an equivalent distribution of the LD50 values and the different hazard categories between the training and the evaluation sets without supervised sampling of the chemicals based on structures (Figure 1A). The sources of the chemical structures were also kept equivalent between the two sets, with chemical structures obtained from DSSTox, being the highest quality, representing over 75% of each set (Figure 1B).

SMILES	GHS category
CCCCCCCC(=O)Nc1ccc(Cc2ccccn2)c([N+](=O)[O-])c1	3
CNc1ccc(C(=O)O)cc1[N+](=O)[O-]	5
CC(C)C1OCCN1CCOC(=O)NCCCCCCNC(=O)OCCN1CCOC1C(C)C (configuration not stated)	5
CC1=CC1	5
CCC(=O)O[C@]1(C(=O)COC(C)=O)CC[C@H]2[C@@H]3C[C@H](C)C4=CC(=O)C=C[C@]4(C)[C@H]3[C@@H](O)C[C@@]21C	5
CO[C@@]1(NC(=O)C(C(=O)O)c2ccc(O)cc2)C(=O)N2C(C(=O)O)=C(CSc3nnnn3C)CO[C@@H]21 (some centres not stated)	5
Cc1cc(C(F)(C(F)(F)F)C(F)(F)F)ccc1NC(=O)c1cccc(I)c1C(=O)NC(C)(C)CS(C)(=O)=O	5
CCCCCC(=O)OCCCC	5
COC(=O)CSP(=S)(OC)OC	5
O=C1CCCCCCCCCOCCCCCO1	5
CC(=O)Nc1cc2cccnc2c(N2CCN(CCO)CC2)n1	5
CCC(CO)(CO)C(=O)O	5
O=C(O)CCCCCCCC(=O)O	5
Cn1nnnc1SCCCC(=O)NC1CCCCC1	4
CCCCCCCCC=CCCCCCCOC(C)=O	5
C=C(C)C(=O)OCCC(F)(F)C(F)(F)C(F)(F)C(F)(F)C(F)(F)C(F)(F)F	5
O=C1c2ccccc2CN2C(=O)c3ccccc3CN12	5
CC1CC(OC(=O)C(C)Oc2ccc(Cl)cc2)CC(C)(C)C1 (configuration not stated)	5
CCOC(=O)C(=O)Nc1cc(Cl)ncn1	4
C=C(C)C(=O)OCCOCCOCCOCC	5
CCCCCCCCCCCCCOC(=O)c1ccccc1C(=O)OCCCCCCCCCCCCC	5
C[C@]12Cc3nonc3C[C@@H]1CC[C@@H]1[C@@H]2CC[C@@]2(C)[C@H]1CC[C@]2(C)O	5
CCCC(=O)OC	5

SMILES	GHS category
CC(O)C(C)O (configuration not stated)	5
CCOc1ccc(Cc2cc([C@@H]3O[C@H](COC(C)=O)[C@@H](OC(C)=O)[C@H](OC(C)=O)[C@H]3OC(C)=O)ccc2Cl)cc1	5
CC(C)CCCCCCCCCCOC(=O)CCCCC(=O)OCCCCCCCCCCC(C)C	5
Brc1ccc(N/C(=N/C2CCCCC2)c2ccccc2)cc1	5
Cc1cc(C)c(S(=O)(=O)O)cc1N=Nc1cc(S(=O)(=O)O)c2ccccc2c1O	5
CCOC(=O)C(Br)CC (configuration not stated)	4
CC1=C(C(=O)O)N2C(=O)[C@@H](NC(=O)[C@H](N)C3=CCC=CC3)[C@H]2SC1	5
CCC(C)CCCC(C)CCCC(C)C (configuration not stated)	5
CC[C@H](C)[C@H](NC(=O)[C@H](CCC(=O)O)NC(=O)[C@H](CO)NC(=O)[C@@H](NC(=O)[C@@H](N)CO)C(C)C)C(=O)N[C@@H](CCC(N)=O)C(=O)N[C@@H](CC(C)C)C(=O)N[C@@H](CCSC)C(=O)N[C@@H](Cc1cnc[nH]1)C(=O)N[C@@H](CC(N)=O)C(=O)N[C@@H](CC(C)C)C(=O)NCC(=O)N[C@@H](CCCCN)C(=O)N[C@@H](Cc1cnc[nH]1)C(=O)N[C@@H](CC(C)C)C(=O)N[C@@H](CC(N)=O)C(=O)N[C@@H](CO)C(=O)N[C@@H](CCSC)C(=O)N[C@@H](CCC(=O)O)C(=O)N[C@@H](CCCNC(=N)N)C(=O)N[C@H](C(=O)N[C@@H](CCC(=O)O)C(=O)N[C@@H](Cc1c[nH]c2ccccc12)C(=O)N[C@@H](CC(C)C)C(=O)N[C@@H](CCCNC(=N)N)C(=O)N[C@@H](CCCCN)C(=O)N[C@@H](CCCCN)C(=O)N[C@@H](CC(C)C)C(=O)N[C@@H](CCC(N)=O)C(=O)N[C@@H](CC(=O)O)C(=O)N[C@H](C(=O)N[C@@H](Cc1cnc[nH]1)C(=O)N[C@@H](CC(N)=O)C(=O)N[C@@H](Cc1ccccc1)C(=O)O)C(C)C)C(C)C	2
O=C(O)CN(CCN(CC(=O)O)CC(=O)O)CCN(CC(=O)O)CC(=O)O (racemic)	5
Cc1cc(C(=O)Nc2ccccc2C(F)(F)F)n[nH]1	5
CCCS(=O)(=O)Nc1ccc(F)c(C(=O)c2cn(C(=O)c3c(Cl)cccc3Cl)c3ncc(-c4ccc(Cl)cc4)cc23)c1F	5
C1CCCCCC2=C(CCCC1)CCCO2	5
NC1=NCC2c3ccccc3Cc3ccccc3N12 (configuration not stated)	4
CCCCCCC(=O)OC1CCC2C3CCC4=CC(=O)CCC4(C)C3CCC12C (configuration not stated)	4
CC(=O)C[N+]1(CC(N)=O)C(=O)Sc2ccc(Cl)cc21 (configuration not stated)	5
CCCCC(CC)COC(=O)CCCCCCCCC(=O)OCC(CC)CCCC (configuration not stated)	5
CC(Oc1cccc(Cl)c1)C(=O)O (configuration not stated)	4
CCCCCCCCCCCCCC(=O)N[C@@H](CCC(=O)O)C(=O)O	5
CSC(C)=NOC(=O)N(C)SN(C)C(=O)Oc1ccc(Sc2ccc(OC(=O)N(C)SN(C)C(=O)ON=C(C)SC)cc2)cc1	4
CC(C)(CO)C1OCC2(CO1)COC(C(C)(C)CO)OC2 (configuration not stated)	5
N#CC1CCCC2OCC(c3ccccc3)N12 (configuration not stated)	5
CC(=O)S[C@@H]1CC2=CC(=O)CC[C@]2(C)[C@H]2CC[C@@]3(C)[C@@H](CC[C@@]34CCC(=O)O4)[C@H]12	4

SMILES	GHS category
CC(=O)OCOC(=O)C1=C(COC(N)=O)SC2C(C(C)O)C(=O)N12 (configuration not stated)	5
CCC(=O)OC(C)(C)C1CC=C(C)CC1 (configuration not stated)	5
CCCCCCCCCC(OC)OC	5
CNC(=O)C(=NNc1cccc(Cl)c1Cl)C(C)=O	5
CCNC(=O)[C@@H]1CCCN1C(=O)[C@H](CCCNC(=N)N)NC(=O)[C@H](CC(C)C)NC(=O)[C@@H](CC(C)C)NC(=O)[C@H](Cc1ccc(O)cc1)NC(=O)[C@H](CO)NC(=O)[C@H](Cc1c[nH]c2ccccc12)NC(=O)[C@H](Cc1cnc[nH]1)NC(=O)[C@@H]1CCC(=O)N1	5
O=S(=O)([O-])CCC[n+]1ccccc1	5
CC(=O)c1c(C)c([N+](=O)[O-])c(C(C)(C)C)c([N+](=O)[O-])c1C	5
CN[C@@H]1[C@H](O)[C@H](NC)[C@H]2O[C@@]3(O)C(=O)C[C@@H](C)O[C@H]3O[C@@H]2[C@H]1O	5
CCCCC/C=C\CCC(CCCCCCCC(=O)O)C(CCCCCCCC)CCCCCCCCC(=O)O (configuration not stated)	5
CC(C)=CCC/C(C)=C/CC/C(C)=C/CCC(=O)OC/C=C(\C)CCC=C(C)C	5
Cc1ncc(CSSSCc2cnc(C)c(O)c2CO)c(CO)c1O	5
Cc1ccc(SCOC(Cn2ccnc2)c2ccc(Cl)cc2Cl)cc1 (configuration not stated)	5
CCOC(=O)[C@H](CCc1ccccc1)N[C@H]1CCc2ccccc2N(CC(=O)O)C1=O	5
CC(=O)O[C@]1(C(C)=O)CC[C@H]2[C@@H]3C[C@H](C)C4=CC(=O)CC[C@]4(C)[C@H]3CC[C@@]21C	5
Cc1ccc(NC(=O)N(C)C)cc1NC(=O)N(C)C	5
CC(C)(C)N(Sc1nc2ccccc2s1)Sc1nc2ccccc2s1	5
COc1ccc([C@@H]2Sc3ccccc3NC(=O)[C@@H]2O)cc1	5
Cc1c(C)c2c(c(C)c1OC(=O)c1cccnc1)CC[C@@](C)(CCC[C@H](C)CCC[C@H](C)CCCC(C)C)O2 (racemic)	5
NC(=O)NC(c1ccccc1)c1ccccc1	5
CCCCCCCCCCCCCCCC	5
CC(=O)O[C@@H]1C(=O)O[C@@H]2[C@H]1OC(=O)[C@@H]2OC(C)=O	5
